Consider 4 compounds from ChEMBL document CHEMBL2074220, “Interaction of human organic anion transporters with various cephalosporin antibiotics” (Eur J Pharmacol, 2002).

Assay [1] deals with T1, Organic anion transporter 3 (Homo sapiens, UniProt Q8TCC7).
T1 sequence (Q8TCC7 whole entry): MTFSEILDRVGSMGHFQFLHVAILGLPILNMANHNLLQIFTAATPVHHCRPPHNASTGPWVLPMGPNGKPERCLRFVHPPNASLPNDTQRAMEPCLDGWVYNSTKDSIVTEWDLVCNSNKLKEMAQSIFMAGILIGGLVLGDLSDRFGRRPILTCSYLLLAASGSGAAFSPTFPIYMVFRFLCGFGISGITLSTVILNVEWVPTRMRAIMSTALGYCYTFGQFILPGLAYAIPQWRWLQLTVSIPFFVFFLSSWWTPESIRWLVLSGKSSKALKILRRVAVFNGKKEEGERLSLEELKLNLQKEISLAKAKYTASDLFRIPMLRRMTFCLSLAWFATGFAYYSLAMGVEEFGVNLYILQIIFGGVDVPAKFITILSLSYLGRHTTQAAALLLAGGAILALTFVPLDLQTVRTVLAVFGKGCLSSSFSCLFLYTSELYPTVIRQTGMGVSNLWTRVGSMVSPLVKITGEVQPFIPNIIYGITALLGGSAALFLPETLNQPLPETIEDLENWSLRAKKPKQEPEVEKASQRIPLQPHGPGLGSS
The experiment in a line: TP_TRANSPORTER: inhibition of Estrone sulfate uptake in OAT3-expressing S2 cells. The class given is functional, cell-based.

For assay [2], the target named is T2, Solute carrier family 22 member 11 (Homo sapiens, UniProt Q9NSA0).
T2 sequence (Q9NSA0 whole entry): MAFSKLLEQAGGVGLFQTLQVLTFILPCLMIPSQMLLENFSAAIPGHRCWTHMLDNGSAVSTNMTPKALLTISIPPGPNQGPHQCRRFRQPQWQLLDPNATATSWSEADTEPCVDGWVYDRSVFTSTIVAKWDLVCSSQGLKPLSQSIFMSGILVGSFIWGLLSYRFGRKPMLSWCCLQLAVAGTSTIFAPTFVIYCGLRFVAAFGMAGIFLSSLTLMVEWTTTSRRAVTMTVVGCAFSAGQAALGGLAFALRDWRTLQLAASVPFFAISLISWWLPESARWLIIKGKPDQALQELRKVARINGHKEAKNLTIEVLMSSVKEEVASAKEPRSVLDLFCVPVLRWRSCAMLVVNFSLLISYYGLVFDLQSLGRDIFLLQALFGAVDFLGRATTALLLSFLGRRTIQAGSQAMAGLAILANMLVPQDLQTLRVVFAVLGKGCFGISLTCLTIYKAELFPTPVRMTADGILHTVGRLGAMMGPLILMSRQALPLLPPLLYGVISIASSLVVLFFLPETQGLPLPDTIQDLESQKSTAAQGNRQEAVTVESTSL
Kind of assay: TP_TRANSPORTER: inhibition of Estrone sulfate uptake in OAT4-expressing S2 cells. The assay is classed as functional, cell-based.

`CO/N=C(\C(=O)N[C@@H]1C(=O)N2C(C(=O)O)=C(COC(C)=O)CS[C@H]12)c1csc(N)n1` [CEFOTAXIME] gave a Ki in assay [1] of 290 µM.

For the compound `Cn1nnnc1SCC1=C(C(=O)O)N2C(=O)[C@@H](NC(=O)[C@H](O)c3ccccc3)[C@H]2SC1` [CEFAMANDOLE], the affinity in assay [1], expressed as Ki, was 46 µM. On to `CC(=O)OCC1=C(C(=O)O)N2C(=O)[C@@H](NC(=O)Cc3cccs3)[C@H]2SC1` [CEPHALOTHIN], for which the Ki in assay [2] amounted to 200 µM; in assay [1], 40 µM. For `Cc1nnc(SCC2=C(C(=O)O)N3C(=O)[C@@H](NC(=O)Cn4cnnn4)[C@H]3SC2)s1` [CEFAZOLIN], the inhibitory constant (Ki) in assay [1] turned out to be 550 µM.

By Ki is commonly meant the dissociation constant of the complex between target and ligand, obtained from inhibition or displacement. A low value points to a stronger hold on the target.
